We go through six molecules from US5441983A, “Treatment of infection by enveloped virus with calix(N)arene compounds” (Genelabs Incorporated, priority 1992, dated 1995).

In brackets after ≈: the same amount, converted by molar mass. Where two headings read alike, the source gives them in different places.

For test [1], the system named is HSV-1. Kind of test: HSV-1 viral yield inhibition by combined drug exposure. The note with it: HSV-1, FIG. 34A. Type of test: cell-based. The text has this: With either drug alone, a maximum decrease in viral yield was slightly less than three logs (orders of magnitude).
Two days later, the medium was removed.

Test [2] relates to HSV-1 KOS. In words: Inhibition of viral yield, wild type HSV-1 KOS. The conditions noted are these: Human alphaherpesvirus 1, HeLa, read-out: ID90.
Protocol: (§13) These compounds tested were the nucleoside analogs acyclovir (ACV), ganciclovir (DHPG), phosphonoformate (PFA), and phosphomethoxyethyladenine (PMEA). Inhibition of viral yield was determined, as above, by infecting Hela cells in the presence of wild type or drug-resistant strains of HSV-1 or HSV-2, and serial dilutions of a selected anti-viral compound, and infecting Vero cells with serial dilutions of the Hela cell lysate, as above.
(§14) The KOS (HSV-1) and 333 (HSV-2) are wild type viruses; the KOS(PMEA)' and KOS(PFA)' are drug-resistant HSV-1 strains having a DNA polymerase mutation. The 333(DHPG) strain is a drug-resistantHSV-2 strain having a thymidine kinase mutation.
(§15) The following strains of HSV-1 and HSV-2 virus were used: KOS, a wild type HSV-1 virus; KOS (PMEA) and KOS (PFA), both drug-resistant HSV-1 viruses having a DNA polymerase mutation; 333, a wild type HSV-2 HSV-2 virus, and 333 (DHPG), a drug-resistant HSV-2 virus having a thymidine kinase mutation.
(§16) After growth at 37° C. for 24 hours in 2 ml of RPMI-1640 containing 2% FCS and penicillin and streptomycin (P/S), the cells were frozen at -70° C. until the time for titration. The cells were freeze/thawed 3 times to release virus from the cells, serially diluted 10 fold, and the serial dilutions were added to Vero cells in culture. After 2 hours incubation at 37° C. the virus was removed and 0.5 ml methycellulose (4K cps) in RPMI-1640 and 2% FCS+P/S was added. Two days later, the medium was removed. The cells were stained in 0.8% crystal violet in 50% ethanol. The plaques formed were counted and the titer was calculated from the fold of dilutions. From the drug dose response, the concentration of each drug required to effect a 90% inhibition of virus yield, the IC90 concentration was determined.
Test [3] has as its system HSV-2 333. In words: Inhibition of viral yield, wild type HSV-2 333. The conditions noted are these: Human alphaherpesvirus 2, HeLa, read-out: ID90.
Protocol: as §13, §14, §15, §16
Test [4] has as its system HSV-1 KOS (PFA)'. In words: Inhibition of viral yield, drug-resistant HSV-1 KOS(PFA)'. The conditions noted are these: Human alphaherpesvirus 1, HeLa, read-out: ID90.
Protocol: as §13, §14, §15, §16
Test [5] deals with HSV-1 KOS(PMEA)'. In words: Inhibition of viral yield, drug-resistant HSV-1 KOS(PMEA)'. The note with it: Human alphaherpesvirus 1, HeLa, read-out: ID90.
Protocol: as §13, §14, §15, §16
Test [6] deals with HSV-2 333 (DHPG)'. Kind of test: Inhibition of viral yield, drug-resistant HSV-2 333(DHPG)'. The conditions noted are these: Human alphaherpesvirus 2, HeLa, read-out: ID90.
Protocol: as §13, §14, §15, §16
Test [7] relates to HSV-2. Kind of test: Topical treatment of genital HSV-2 infection, guinea pigs, first study. The note with it: 5%.
Protocol: Briefly, female guinea pigs were infected intravaginally with HSV-2, then treated topically three times daily beginning 6 hours or 48 hours after inoculation with HSV-2, as described in Example 13. […] Swabs of vaginal secretion were obtained and assayed for viral activity by a standard CPE assay. The severity of genital lesions was scored on a 0-5+ scale through the period of primary infection (21 days).
(§17) The MS strain of HSV-2 was utilized for the experimental animal infection. Female Hartley strain guinea pigs (Charles River Breeding Laboratories, Kingston, NY) weighing 250-300 g were inoculated intravaginally with 2.0×10^5 plaque-forming units of HSV-2 one hour after being swabbed for removal of vaginal secretions.
In the first study, groups of 10 guinea pigs were treated topically (0.1 ml intravaginally +0.1 ml on external genital skin) three times daily (approximately every eight hours) for seven days beginning 6 h or 48 h after inoculation with HSV-2.
To determine the effect of treatment on vaginal viral replication, swabs of vaginal secretions were obtained on days 1, 3, 5, 7 and 10 after HSV inoculation, placed in a tube containing 2.0 ml of media, vortexed and frozen at -70° C. until titrated for HSV-2. When all samples were collected, they were thawed, diluted serially and HSV-2 titers determined using rabbit kidney cells in a microtiter CPE assay.
(§18) To determine the effect of therapy on the development and spread of external genital lesions, lesion severity was scored on a 0-5+ scale through the primary infection period (19-21 days). Lesion score-day areas and virus titer-day areas under the curve, and peak lesion scores and peak virus titers between untreated and placebo-treated or placebo-treated and drug-treated animals were compared using the Mann-Whitney U range sum test. A p-value of 0.05 or less was considered significant.
The subject of test [8] is HSV-2. Kind of test: Topical treatment of genital HSV-2 infection, guinea pigs, second study. The conditions noted are these: 5%, 24 h.
Protocol: In another study using the guinea pig genital model described above, animals were infected with HSV-2, then treated with KY-1 or Y-1 topically at concentrations of 2% or 5% drug. […] Animals were treated and scored daily for severity of infection for 19 days.
as §17
Formulations of KY-1 or Y-1 were prepared by dissolving the compound in a 1.5% methyl cellulose solution such that final concentration of compound was 2% or 5% (wt/wt). Control animals were given either no treatment (N=10 animals) or treatment with placebo (1.5% methylcellulose solution).
as §18
Animals were scored daily for 19 days following inoculation for presence of lesions and severity of lesions (on a 0-5+ point scale). Lesion scores were tabulated as area under the curve of daily lesion score vs. time (days) and peak lesion score observed. A known antiviral agent, acyclovir (ACV) was administered in a 5% formulation to 8 animals as a positive control in the study.
The test system of test [9] is HSV-1. In words: Plaque reduction assay, HSV-1, Vero cells. Type of test: cell-based, HSV-1 (Kos-1). The conditions noted are these: Human alphaherpesvirus 1, Vero, plaque reduction, Vero cells. The protocol: (§1) used in Table 3 were further tested for activity against HSV infection in
(§2) a plaque reduction assay, as detailed in Example 6. Here Vero cells, after
(§3) overnight incubation, were exposed to serial dilutions of KY compound,
(§4) from 0.625-10 μg/ml, and HSV-1 or HSV-2 virus for two hours. After
(§5) washing to remove drug and extracellular virus, the cells were further
(§6) incubated for 2 days, then stained and counted for plaque formation.
(§7) Percent inhibition was determined by dividing plaques produced by total
(§8) number of plaques in infected, untreated controls. From the concentration
(§9) effect curve of plaque inhibition (expressed as percent of control), the
(§10) concentration of compound required to produce 50% plaque reduction,
(§11) IC50, was determined. The IC50 values for infection by HSV-1 and
(§12) HSV-2 infection is given in the right-hand columns in Table 3. With

Test [10] concerns HSV-2. Kind of test: Plaque reduction assay, HSV-2, Vero cells. In kind it is cell-based, HSV-2 (333). The conditions noted are these: Human alphaherpesvirus 2, Vero. The protocol:
as §1, §2, §3, §4, §5, §6, §7, §8, §9, §10, §11, §12

For test [11], the system named is panel of human cell lines. Kind of test: Cytotoxicity in proliferating human cell lines. Type of test: cell-based. The note with it: 72 h, read-out: IC50 drug concentration (50% cell death). The protocol:
In addition, a large number of representative aryl macrocyclic compounds (including those shown in Tables 1 and 2) were examined for toxicity in cell culture, using a panel of human cell lines, as detailed in Example 4. Briefly, the selected KY- or Y- compound was added to cell cultures at a final concentration of 5, 10, 25, 50, or 100 μg/ml. Three days later the cells were washed to remove drug, and stained with a vital stain, to determine the percentage of dead cells in each culture. The IC50 drug concentration, i.e., value concentration of drug which produced 50% cell death, was 50 μg/ml for KY-143, KY-151, and KY-163, and 100 μg/ml or greater for all of the other KY compounds tested. For KY-1, which has a molecular weight of 1404 daltons, a drug concentration of 100 μg/ml is equivalent to about […].
A panel of human cell lines was used to check the toxicity of the drugs, including: KB (nasopharyngeal carcinoma), HeLaS3 (cervical epithelial carcinoma), PLC (hepatocarcinoma), HepG2 (human hepatocarcinoma) HepG2T14 (hepatocarcinoma transfected with HBV), WI38 (normal human lung fibroblast), BT549 (breast cancer), SW480 ([…]), and A549 (lung cancer).
Three days later, the medium was removed and the cells were stained with Commassie Blue in 40% methanol and 7% acetic acid. The results are discussed in Section II above.

Test [12] concerns HIV-RF-II. In words: Inhibition of syncytia formation, HIV-RF-II.
Protocol: Briefly, cells chronically infected with HTLV-IIIB or RF-II HIV strains were incubated in the presence of serial dilutions of the selected KY compound, then further cocultured with indicator cells. The extent of syncytia formation was scored under phase microscopy.
Representative calix(n)arene compounds from Table 2 were tested for inhibition of cytopathic effects in cells infected with one of two HTLV-III strains, HTLV-IIIB and RF-II strains, as described in Example 12, and in the subsection above.
Human CD4^+ indicator cells (VB) and chronically infected H9 cells were maintained in RPMI-1640 medium supplemented with 5% fetal calf serum, 100 Units of penicillin per ml and 100 μg of streptomycin per ml at 37° C. in a humidified incubator containing 7% CO2.
For the fusion assay, serial dilutions between 1:2 and 1:2^8 of a selected KY compound, 1 mg/ml in PBS were made in a 96 well round bottom plate. The diluted KY compound was transferred to a 96 well flat-bottom plate. To each well was added 25 μg chronically infected H9 cells (at 2×10^6, cells/ml), or cells chronically infected with RF-II strain HIV, followed by incubation at 37° C. for 45 minutes. To each well was then added 25 μl VB cells (about 5×10^4 cells), and the cells and virus isolates were cocultured for 18 hours in a humid 5% CO2 atmosphere.
In test [13] the test system is HIV-HXB. Kind of test: Inhibition of syncytia formation, HIV-HXB (HTLV-IIIB). The conditions noted are these: Human immunodeficiency virus 1, 18 h, read-out: HIV-HXB ED100, complete inhibition of syncytia formation.
Test [14] concerns HSV-1 or HSV-2. In words: Inhibition of HSV cytopathic effect (CPE) in Vero cells. The note with it: 10-20 μg/ml.
Protocol: In the method reported in Example 5, Vero cells were infected with HSV-1 or HSV-2 and allowed to grow in culture until cytopathic effects were clearly visible. In the absence of infection, the cells form an even monolayer of fibro-blastlike cells. With HSV infection, a cytopathic effect characterized by round cells in suspension is clearly evident after 24 hours, followed by clumping and lysis of infected cells after 24-72 hours.
In the drug inhibition study reported in Example 5, cells were exposed to HSV-1 or HSV-2 virus and, at the same time, to a selected aryl macrocyclic compound, at a final drug concentration of 10 μg/ml. Twenty-four hours later the cells were examined for cytopathic effect.
Vero cells were maintained in RPMI-1640 medium supplemented with 5% fetal calf serum, 100 Units of penicillin per ml and 100 μg of streptomycin per ml at 37° C. in a humidified incubator containing 7% CO2. The HSV strains HSV-1 (Kos-1) and HSV-2 (333) were used.
1×10^5 Vero cells were plated in each well of a 96 well microtitre plate in 0.2 ml RPMI-1640 medium containing 5% FCS and 0.1% methyl cellulose (15 cps). After overnight incubation, and cell doubling, the medium was aspirated and replaced with 100 .1 of the same medium containing 2% FCS, and 50.1 control or drug solution to a final drug concentration of 10 μg/ml and 50 μl virus, containing about 3 PFU/cell, i.e., 6 x 10^s PFU/well, of HSV-1 or HSV-2.
The cells were cultured for 24 hours at 37° C. at which time cytopathic effects are clearly visible. In the absence of viral infection, the cells form an even monolayer of fibroblast cells. With viral infection, the cells form a suspension of round cells, followed by cell clumping, whose appearance is easily distinguishable from normal fibroblast cells. If no detectable cytopathic effect was produced, the test was repeated with 10 μg/ml. A parallel set of cells without virus inoculation were done as a control for cytotoxicity to Vero cells.
Test [15] relates to Influenza A (Taiwan). Kind of test: Inhibition of influenza A cytopathic effect (clumping) in MDCK cells. Type of test: cell-based, Influenza A virus (A/Taiwan strain). The note with it: Influenza A virus, 24 h, 50% reduction in percent clumped cells, read-out: ED50 Influenza A (Taiwan). The protocol:
With virus infection, a cytopathic effect characterized by cell clumping is observed. For each compound tested, drug concentrations of 0.1, 1, 10, 25, and 100 μg/ml were added to cultured cells at the time of virus infection, as detailed in Examples 9 and 11. […] The inhibition of clumping was plotted as a function of drug concentration, to determine the dose effective to produce a 50% reduction in the percent clumped cells, measured with respect to control (no drug treatment).
Assays to assess the antiviral activity of KY- and Y-compounds in tissue culture were performed in 96-well flat-bottom tissue culture plates (Falcon 307), using conditions similar to those used in the cytotoxicity assays described above. In these assays, compound was tested in quadruplicate by serially diluting the compound in 2% FCS-MEM using serial two-fold dilutions (0.05 ml/well). A 0.05 ml volume of the appropriate virus containing approximately 100 median tissue culture infectious doses (TCID50) was then added to all wells except those set aside as antiviral and tissue control wells. Next, approximately 3×10^3 HEp2 cells (0.1 ml) were added to each well. Control wells containing antiviral and no virus (antiviral control), containing virus but no antiviral (virus control), or containing medium without virus or antiviral (tissue control), were included in each test. The challenge virus was then back titrated. All assay plates were incubated at 35° C. for 5 to 7 days in a 5% CO2 incubator.
The anti-influenza A activity of KY compounds was evaluated as described in Example 9, except that MDCK cells (kidney cell line) was used for infection in vitro by influenza virus (strain A/Taiwan).

The test system of test [16] is RSV. Kind of test: Inhibition of RSV cytopathic effect in HEp2 cells. The note with it: human respiratory syncytial virus, HEp-2; HEp2 cells, cytopathic effect; read-out: ED50 RSV. In kind it is cell-based.

As for `Nc1nc2c(ncn2COCCO)c(=O)[nH]1` [ACV, acyclovir, reference compound], the “maximum decrease in viral yield, either drug alone” value in test [1] is listed as “less than three”. Moreover, the IC90 was 14 µM in [2]; around 10 µM in test [3]; 100 µM in test [4]; 380 µM in [5]; above 100 µM in [6]. The “Lesion score Area Under Curve” value in test [7] (+6 h) amounted to 2.7; in test [7] (+48 h), 45.8. In addition, the results for the “Mean Peak lesion score” value in test [7] (+6 h), in test [7] (+48 h) and in [8] were 0.6, 3.8 and 1.5, respectively. For the same molecule, in test [8], the “% Animals with Lesions” value stood at 37.5%. Also, the “Lesion Score (AUC)” value in test [8] stood at 11.7.

Turning to `Nc1nc(O)c2ncn(COC(CO)CO)c2n1` [DHPG, ganciclovir], the IC90 stood at 2 µM in test [2], 2 µM in test [3], 1 µM in test [4] and 215 µM in test [6].

For `O=S(=O)(O)c1c2c(O)c3c(O)c(c(S(=O)(=O)O)c(O)c3c1O)Cc1c(S(=O)(=O)O)c(O)c3c(O)c(S(=O)(=O)O)c(c(O)c3c1O)Cc1c(S(=O)(=O)O)c(O)c3c(O)c(S(=O)(=O)O)c(c(O)c3c1O)Cc1c(S(=O)(=O)O)c(O)c3c(O)c(S(=O)(=O)O)c(c(O)c3c1O)C2` [KY-143], the IC50 was above 10 µg/mL in [9]; above 10 µg/mL in [10]; 50 µg/mL (≈ 34.3 µM) in [11] (panel of human cell lines, 3 days). Also, the EC100 in [12] (Human immunodeficiency virus 1, 18 h, read-out: HIV-RF-II ED100, complete inhibition of syncytia formation) came out at 125 µg/mL; in test [13] it was 250 µg/mL. In addition, the “protection from CPE, in words” value in test [14] is on record as “low activity”.

Consider `COc1c2c(S(=O)(=O)O)cc3cc(S(=O)(=O)O)c(c(OC)c13)Cc1c(S(=O)(=O)O)cc3cc(S(=O)(=O)O)c(c(OC)c3c1OC)Cc1c(S(=O)(=O)O)cc3cc(S(=O)(=O)O)c(c(OC)c3c1OC)Cc1c(S(=O)(=O)O)cc3cc(S(=O)(=O)O)c(c(OC)c3c1OC)C2` [KY-151], for which the IC50 in test [9] was determined as 1.25 µg/mL (≈ 0.867 µM); in test [10], 1.8 µg/mL (≈ 1.25 µM); in test [11] (Homo sapiens), 50 µg/mL (≈ 34.7 µM). Besides, the EC50 in test [15] was above 94 µg/mL; in [16], 1.5 µg/mL (≈ 1.04 µM). The “HIV-RF-II ED100” value in test [12] (complete inhibition of syncytia formation) was found to be 125. In addition, the EC100 in [13] worked out at 32 µg/mL.

Turning to `O=C(O)P(=O)(O)O` [PFA, phosphonoformate], the IC90 in test [2] is 180 µM; in [3], 150 µM; in [4], above 1000 µM; in test [5], 3000 µM.

As to `Nc1ncnc2c1ncn2CCOCP(=O)(O)O` [PMEA, phosphomethoxyethyladenine], the IC90 in [2] is 100 µM; in test [3], 155 µM; in [4], above 1000 µM; in test [5], above 2000 µM; in test [6], 120 µM.
